Measured values: patent publication US20240041840A1 (Areteia Therapeutics, Inc., priority 2020, published 2024)
Where two headings read alike, the source gives them in different places.

Test system: subjects with eosinophilic asthma
Method: Pulmonary function is measured by performing a spirometry, which measures forced expiratory volume in is (FEV1), the volume of air moved in the first second of exhalation, this is a well-accepted measure of asthma. Forced vital capacity (FVC) is the total volume of air exhaled during the entire forced expiratory volume (FEV) test. The FEV1/FVC ratio is a calculated measure that may provide a more specific measure of bronchoconstriction, independent of processes such as air trapping. Pulmonary function testing can be tested pre-bronchodilator (after waiting a sufficient time so that all bronchodilator medications have cleared) or post-bronchodilator, typically 15-30 minutes after inhaling a short-acting bronchodilator, such as albuterol. Bronchodilator reversibility (BDR) is calculated and assessed by analyzing FEV1 pre- and post-bronchodilator, and calculating the change both as absolute (ml) and percentage change.
Evaluation of Efficacy: Blood eosinophil count, changes in pulmonary function (FEV1), Asthma Control Questionnaire (ACQ-6), Asthma Control Questionnaire (ACQ-7), Asthma Quality of Life Questionnaire (AQLQ), exhaled nitric oxide, pharyngeal and nasal eosinophil peroxidase were collected periodically during the study.
To control the alpha level for testing 3 dose groups versus placebo for the primary endpoint and for testing FEV1, a closed hierarchical testing procedure was used in the following order: 1. First, the 300 mg/day dose group was tested versus placebo for change in blood absolute eosinophil count, and if this reached the <0.05 level then, 2. the 150 mg/day dose group was tested versus placebo at the 0.05 level for change in blood absolute eosinophil count, and if this reached the <0.05 level then, 3. the pooled 150 and 300 mg/day dose groups were tested versus placebo at the 0.05 level for change in FEV1 at Week 12, then 4. the 75 mg/day dose group was tested versus placebo at the 0.05 level for change in blood absolute eosinophil count, and if this reached the <0.05 level.

[1] = 300 mg/day, Table 6D, timepoint printed as Analysis Baseline*
[2] = 300 mg/day, Table 6D, timepoint printed as Week 4
[3] = Week 4, pooled dexpramipexole arms, <50% AEC reduction at Week 12
[4] = Week 4, pooled dexpramipexole arms, ≥50% AEC reduction at Week 12
[5] = Week 8, pooled dexpramipexole arms, ≥50% AEC reduction at Week 12
[6] = Week 12, pooled dexpramipexole arms, <50% AEC reduction at Week 12
[7] = Week 12, pooled dexpramipexole arms, ≥50% AEC reduction at Week 12
[8] = Week 16 or Week 18, pooled dexpramipexole arms, ≥50% AEC reduction at Week 12

CCCN[C@@H]1CCc2nc(N)sc2C1 [dexpramipexole, (6R)-2-amino-4,5,6,7-tetrahydro-6-(propylamino) benzothiazole]
Pre-Bronchodilator FEV1, % change from Baseline, mean (150 mg/day, Week 8): 7.57%
FEV1 change from Baseline LSM (150 mg/day, Week 12): 0.0601 L
Pre-Bronchodilator FEV1, % change from Baseline, mean (150 mg/day, Week 12): 3.14%
FEV1 difference versus Placebo LSM (150 mg/day, Week 16 or Week 18): 0.161 L
Pre-Bronchodilator FEV1, % change from Baseline, mean (150 mg/day, Week 16 or Week 18): 7.71%
ΔFEV1 vs Placebo LSM (SEM), pooled data (150 mg/day, Weeks 4, 8, 12, & 16/18 pooled): 126 mL
Placebo-corrected FEV1 increase from baseline (300 mg/day arm, averaged Week 8 through Week 16/18): counts. In the 300 mg/day arm, placebo-corrected FEV1 increased more than 200 mL from baseline, averaged
Pre-Bronchodilator FEV1 % change, mean [1]: 15.5%
Pre-Bronchodilator FEV1 % change, median [1]: 10.5%
Pre-Bronchodilator FEV1 change, mean [1]: 0.277 L
Pre-Bronchodilator FEV1 change, median [1]: 0.250 L
Pre-Bronchodilator FEV1 observed, mean [1]: 2.32 L
Pre-Bronchodilator FEV1 observed, median [1]: 2.40 L
Pre-Bronchodilator FEV1 % change, mean [2]: 12.5%
Pre-Bronchodilator FEV1 % change, median [2]: 10.0%
Pre-Bronchodilator FEV1 change, mean [2]: 0.236 L
Pre-Bronchodilator FEV1 change, median [2]: 0.210 L
Pre-Bronchodilator FEV1 observed, mean [2]: 2.29 L
Pre-Bronchodilator FEV1 observed, median [2]: 2.45 L
FEV1 change from Baseline LSM (300 mg/day, Week 4): 0.0685 L
FEV1 difference versus Placebo LSM (300 mg/day, Week 4): 0.0838 L
Pre-Bronchodilator FEV1 % change, median (300 mg/day, Week 4): 3.95%
Pre-Bronchodilator FEV1, % change from Baseline, mean (300 mg/day, Week 4): 1.42%
Pre-Bronchodilator FEV1 change, mean (300 mg/day, Week 4): 0.0417 L
Pre-Bronchodilator FEV1 change, median (300 mg/day, Week 4): 0.0700 L
Pre-Bronchodilator FEV1 observed, mean (300 mg/day, Week 4): 2.14 L
Pre-Bronchodilator FEV1 observed, median (300 mg/day, Week 4): 2.16 L
Pre-Bronchodilator Percent Predicted FEV1 % change, mean (300 mg/day, Week 4): 1.42%
Pre-Bronchodilator Percent Predicted FEV1 % change, median (300 mg/day, Week 4): 3.94%
Pre-Bronchodilator Percent Predicted FEV1 change, mean (300 mg/day, Week 4): 0.607%
Pre-Bronchodilator Percent Predicted FEV1 change, median (300 mg/day, Week 4): 2.34%
Pre-Bronchodilator Percent Predicted FEV1 observed, mean (300 mg/day, Week 4): 62.5%
Pre-Bronchodilator Percent Predicted FEV1 observed, median (300 mg/day, Week 4): 62.3%
FEV1 change from Baseline LSM (300 mg/day, Week 8): 0.248 L
FEV1 difference versus Placebo LSM (300 mg/day, Week 8): 0.254 L
Pre-Bronchodilator FEV1, % change from Baseline, mean (300 mg/day, Week 8): 15.5%
FEV1 change from Baseline LSM (300 mg/day, Week 12): 0.209 L
FEV1 difference versus Placebo LSM (300 mg/day, Week 12): 0.162 L
Pre-Bronchodilator FEV1, % change from Baseline, mean (300 mg/day, Week 12): 12.5%
FEV1 change from Baseline LSM (300 mg/day, Week 16 or Week 18): 0.207 L
FEV1 difference versus Placebo LSM (300 mg/day, Week 16 or Week 18): 0.240 L
Pre-Bronchodilator FEV1, % change from Baseline, mean (300 mg/day, Week 16 or Week 18): 10.8%
ΔFEV1 vs Placebo LSM (SEM), pooled data (300 mg/day, Weeks 4, 8, 12, & 16/18 pooled): 185 mL
Improvement in FEV1 (150 and 75 mg/day arms): Week 8 through Week 16/18. Substantial improvements in FEV1 were also seen in the 150 and 75 mg/day arms.
ΔFEV1 vs Placebo LSM (SEM), pooled data (All Dex arms pooled, Week 4): 138 mL
ΔFEV1 vs Placebo LSM (SEM), pooled data (All Dex arms pooled, Week 8): 212 mL
ΔFEV1 vs Placebo LSM (SEM), pooled data (All Dex arms pooled, Week 12): 99 mL
ΔFEV1 vs Placebo LSM (SEM), pooled data (All Dex arms pooled, Week 16/18): 233 mL
ΔFEV1 vs Placebo LSM (SEM), pooled data (All Dex arms pooled, Weeks 4, 8, 12, & 16/18 pooled): 173 mL
Magnitude and statistical significance of FEV1 improvement from baseline compared with other drugs (Table 5, FIG. 3, FIG. 6): comparable or greater than that demonstrated in phase 2 clinical trials of benralizumab and mepolizumab
Pre-Bronchodilator FEV1 Change from Baseline LSM [3]: 0.0742 L
Pre-Bronchodilator FEV1 Difference versus Placebo LSM [3]: 0.0859 L
Pre-Bronchodilator FEV1 Change from Baseline LSM [4]: 0.163 L
Pre-Bronchodilator FEV1 Difference versus Placebo LSM [4]: 0.175 L
Pre-Bronchodilator FEV1 Difference versus Placebo LSM (Week 8, pooled dexpramipexole arms, <50% AEC reduction at Week 12): 0.132 L
Pre-Bronchodilator FEV1 Change from Baseline LSM [5]: 0.275 L
Pre-Bronchodilator FEV1 Difference versus Placebo LSM [5]: 0.276 L
Pre-Bronchodilator FEV1 Change from Baseline LSM [6]: 0.00797 L
Pre-Bronchodilator FEV1 Difference versus Placebo LSM [6]: -0.0448 L
Pre-Bronchodilator FEV1 Change from Baseline LSM [7]: 0.261 L
Pre-Bronchodilator FEV1 Difference versus Placebo LSM [7]: 0.208 L
Pre-Bronchodilator FEV1 Difference versus Placebo LSM (Week 16 or Week 18, pooled dexpramipexole arms, <50% AEC reduction at Week 12): 0.169 L
Pre-Bronchodilator FEV1 Change from Baseline LSM [8]: 0.258 L
Pre-Bronchodilator FEV1 Difference versus Placebo LSM [8]: 0.287 L
FEV1 in hematologic responders (all post-baseline time points (Table 12, FIG. 5)): significant increase
